US20190093096A1, “COMOSAIN AND BROMELAINS AS IMMUNO-THERAPY IN THE TREATING AND/OR PREVENTING VARIOUS TYPES OF CANCER IN A MAMMAL” (priority 2017, published 2019)

B1: trypsin: proteinase purchased from Sigma-Aldrich (protein, UniProt P00760 24-246, looked up)
Serine protease 1: IVGGYTCGANTVPYQVSLNSGYHFCGGSLINSQWVVSAAHCYKSGIQVRLGEDNINVVEGNEQFISASKSIVHPSYNSNTLNNDIMLIKLKSAASLNSRVASISLPTSCASAGTQCLISGWGNTKSSGTSYPDVLKCLKAPILSDSSCKSAYPGQITSNMFCAGYLEGGKDSCQGDSGGPVVCSGKLQGIVSWGSGCAQKNKPGVYTKVCNYVSWIKQTIASN

What was measured:
[1] = Toxicity of rutin, quercetin, kaempherol and vitexin in mice by oral administration; conditions: for adverse effects on hematopeutic, renal, hepatic systems / toxicity: oral, mouse, rutin 1500, quercetin 1250, kaempherol 1000, vitexin 500 mg/kg; for body weight during observation / pathological abnormality of internal organs, visually or microscopically / survival at day 180: single oral dose; for body weight during observation: 180 days of observation; for pathological abnormality of internal organs, visually or microscopically: sacrifice on day 181; for survival at day 180: rutin 1500, kaempherol 1000, vitexin 500 mg/kg
[2] = Analysis for fatty streak deposition in thoracic aorta; format: in vivo, New Zealand white rabbits; conditions: control group: thick layer; 1% cholesterol diet, 8 weeks
[3] = Fatty degeneration in the liver of the rabbits; format: in vivo, New Zealand white rabbits; conditions: 1% cholesterol diet, 8 weeks
From the text: According to the report of Fogt F. and Nanji A., (Toxicology and Applied Pharmacology; 136, pp 87-93, 1996) and Keegan A. et al., (Journal of Hepatology; 23, pp 591-600, 1995). Fatty degeneration of liver can be classified into four grades based upon the abnormal fat containing cells around the central vein of liver acinus, for example: grade 1 (0-25%), grade 2 (26-50%), grade 3 (51-75%), grade4 (76-100%). The effects of rutin, quercetin, kaempherol and vitexin on liver tissue on the rabbits from Example 4 Step B were examined.

[4] = Blood analysis on rabbits fed high cholesterol diets; format: in vivo, New Zealand white rabbits; conditions: for decrease of plasma total cholesterol as compared to control group / decrease of plasma triglycerides as compared to control group: 1% cholesterol diet plus 0.15% flavonoid
Procedure: The rabbits were fed for 8 weeks with free access to specific high cholesterol diets and water. Body weight was recorded every 7 days and the records were analyzed. […] (Rutin, quercetin and kaempherol were purchased from Aldrich-Sigma Co. St. Louis, Mo. USA) (Vitexin was purchased from Indofine Co. Sumerville, N.J. USA)
(Step B) After 8 weeks of breeding, the rabbits were anesthetized with injection of ketamine 75 mg/kg in the femoral muscle and sacrificed. Blood samples were collected from the heart of each rabbit to determine the blood analysis consisting of; complete blood count (CBC), Chemistry-7 and 24, (including Liver and renal function tests), lipid profiles, (including Total cholesterol, HDL, LDL, VLDL and triglycerides), coagulation factors consisting of; Prothrombin time (PT), Partial thromboplastin time (PTT), and immuno-globulin-E (an anti-allergenic factor).
The blood samples collected from rabbits of the six dietary groups were allowed to stand for 2 hours, then centrifuged at 4000 rpm for 10 minutes. (Megafuge, Baxter-Heraeus instrument Co. N.J., USA) The supernatants were separated and stored in a deep freeze before analysis. The chemistry analysis was carried out by blood chemistry analyzer (Cobras-Integra-700, Roche Diagnostic Lab. Indiana, USA) to determine the changes in total cholesterol, HDL, LDL, triglycerides, liver function tests (such as SGOT, SGPT, G-GPT) and coagulation factors (PT, PTT) (Bayer-MLA-Electra-900 Automatic coagulation timer). The results were tested by using student t-test and Microsoft excel-7.0 program. The results are depicted in Table III. • 3.

breast cancer cell line = experiment: Growth inhibition of breast cancer cell line by Quercetin and Naringenin in vitro; format: cell-based
lung cancer cells = experiment: Inhibition of tumor cell growth of lung cancer by pepsin and trypsin in vitro; format: cell-based; conditions: 72 hours at 37 C, 10% CO2, Coulter counter
From the text: The graph represents the two experiments with Pepsin and Trypsin.

| Molecule | adverse effects on hematopeutic, renal, hepatic systems [1] | toxicity [1] | body weight during observation [1] | pathological abnormality of internal organs, visually or microscopically [1] | survival at day 180 [1] | macrophage lipid cell complex in the aorta walls (microscopic pictures) [2] | microscopic features of the liver (fat containing cells) [3] | liver function and WBC ([4]; rabbit, in vivo) | decrease of plasma total cholesterol as compared to control group ([4]; rabbits, 8 weeks) [%] | decrease of plasma triglycerides as compared to control group ([4]; rabbits, 8 weeks) [%] | reducing plasma total cholesterol and triglycerides, compared with Simvastatin ([4]; rabbits, 8 weeks) | growth of breast cancer cell line (breast cancer cell line) | liver function and WBC ([4]; rabbits, 8 weeks, unlike the Simvastatin group) | tumor cell growth of lung cancer (lung cancer cells) |
| --- | --- | --- | --- | --- | --- | --- | --- | --- | --- | --- | --- | --- | --- | --- |
| O=c1c(O)c(-c2ccc(O)cc2)oc2cc(O)cc(O)c12 [Kaempherol, 3,5,7,4′ tetra-hydroxy-flavone] | no adverse effects | no toxicity | no body weight loss | did not develop any pathological abnormality | All mice were alive | no or a very thin layer of macrophage lipid cell complex | almost all of the liver cells are normal without containing fat particles | not affected | 30 | 22 | more effective | – | – | – |
| O=C1C[C@@H](c2ccc(O)cc2)Oc2cc(O)cc(O)c21 [Naringenin] | – | – | – | – | – | – | – | – | – | – | – | Growth inhibition | – | – |
| O=c1c(O)c(-c2ccc(O)c(O)c2)oc2cc(O)cc(O)c12 [Quercetin, 3,5,7,3′,4′ penta-hydroxy flavone] | no adverse effects | – | no body weight loss | did not develop any pathological abnormality | All mice were alive | no or a very thin layer of macrophage lipid cell complex | almost all of the liver cells are normal without containing fat particles | not affected | 33 | 47 | more effective | Growth inhibition | – | – |
| C[C@@H]1O[C@@H](OC[C@H]2O[C@@H](Oc3c(-c4ccc(O)c(O)c4)oc4cc(O)cc(O)c4c3=O)[C@H](O)[C@@H](O)[C@@H]2O)[C@H](O)[C@H](O)[C@H]1O [Rutin, Quercetin-3-rutinoside] | no adverse effects | no toxicity | no body weight loss | did not develop any pathological abnormality | All mice were alive | – | – | – | 32 | 45 | – | – | not affected | – |
| O=c1cc(-c2ccc(O)cc2)oc2c(C3O[C@H](CO)[C@@H](O)[C@H](O)[C@H]3O)c(O)cc(O)c12 (stereo partly drawn) [Vitexin, 8-D-glucosyl-4′,5,7 trihydroxy-flavone] | no adverse effects | no toxicity | no body weight loss | did not develop any pathological abnormality | All mice were alive | no or a very thin layer of macrophage lipid cell complex | almost all of the liver cells are normal without containing fat particles | not affected | 30 | 17 | more effective | – | – | – |
| pepsin: proteinase purchased from Sigma-Aldrich | – | – | – | – | – | – | – | – | – | – | – | – | – | Inhibition of tumor cell growth |
| B1 | – | – | – | – | – | – | – | – | – | – | – | – | – | Inhibition of tumor cell growth |
